Test results from patent US20110105436A1, “HETEROARYL COMPOUNDS, COMPOSITIONS, AND METHODS OF USE IN CANCER TREATMENT” (AUCKLAND UNISERVICES LIMITED, priority 2008, published 2011).

What was measured:
RCC4 cells = test: XTT assay in VHL-deficient RCC4 cells; assay type: cell-based; conditions: Homo sapiens, 96 h, XTT assay, VHL-deficient RCC4 cells, four days
Description: Cell Viability and XTT assays. For cell viability, 100,000 cells were plated in a 12-well plate. The following day, 1.25 μM STF-62247 was added in the presence or absence of 1 mM 3-MA for 24 hours at 37° C. Cells were trypsinized and counted by trypan blue exclusion. For XTT assays, 5000 RCC4 with and without VHL cells or 2,500 SN12C with and without VHL shRNA cells were plated in 96-well plates. The following day, vehicle (DMSO), STF-62247 or each of 19 analogs were added to media by serial dilution. Four days later, the media was aspirated and XTT solution containing 0.3 mg/ml of XTT (Sigma Chemical Co) in Phenol Red-free media, 20% FCS and 2.65 mg/ml N-methyl dibenzopyrazine methyl sulfate (PMS) was added to the cells and incubated at 37° C. for 1-2 hours. Metabolism of XTT was quantified by measuring the absorbance at 450 nm on a plate reader.

melting point [°C]	SMILES	IC50 (RCC4 cells; Table 1) [µM]	IC50 (RCC4 cells; Table 2) [µM]
241 to 243	O=C(Nc1nc(-c2ccncc2)cs1)c1ccccc1 [Compound 99, N-[4-(4-Pyridinyl)-1,3-thiazol-2-yl]benzamide]	> 40	–
229 to 231	COc1cc(Nc2nc(-c3ccncc3)cs2)cc(OC)c1 [Compound 57, N-(3,5-Dimethoxyphenyl)-4-(4-pyridinyl)-1,3-thiazol-2-amine]	> 40	–
252 to 253	N#Cc1cccc(Nc2nc(-c3ccncc3)cs2)c1 [Compound 127, 3-{[4-(4-Pyridinyl)-1,3-thiazol-2-yl]amino}benzonitrile]	> 40	–
121 to 123	COC(=O)CCc1sc(Nc2cccc(C)c2)nc1-c1ccncc1 [Compound 79, Methyl 3-[2-[(3-Methylphenyl)amino]-4-(4-pyridinyl)-1,3-thiazol-5-yl]propanoate]	> 40	–
162 to 164	Cc1cccc(Nc2nc(-c3cc[n+]([O-])cc3)cs2)c1 [Compound 188, N-(3-Methylphenyl)-4-(1-oxido-4-pyridinyl)-1,3-thiazol-2-amine]	–	> 40
198 to 200	Cc1cccc(Nc2nc(-c3ccnc(C)c3)cs2)c1 [Compound 145, N-(3-Methylphenyl)-4-(2-methyl-4-pyridinyl)-1,3-thiazol-2-amine]	–	> 40
> 290	O=[N+]([O-])c1ccc(Nc2nc(-c3ccncc3)cs2)cc1 [Compound 35, N-(4-Nitrophenyl)-4-(4-pyridinyl)-1,3-thiazol-2-amine]	> 40	–
> 300	N#Cc1ccc(Nc2nc(-c3ccncc3)cs2)cc1 [Compound 135, 4-{[4-(4-Pyridinyl)-1,3-thiazol-2-yl]amino}benzonitrile]	> 40	–
190 to 192	Cc1cccc(Nc2nc(-c3ccncc3)c(C(=O)NCCCN3CCOCC3)s2)c1 [Compound 94, 2-[(3-Methylphenyl)amino]-N-[3-(4-morpholinyl)propyl]-4-(4-pyridinyl)-1,3-thiazole-5-carboxamide]	> 40	–
220 to 223	Cc1cccc(Nc2nc(-c3ccncc3)c(C=O)s2)c1 [Compound 77, 2-[(3-Methylphenyl)amino]-4-(4-pyridinyl)-1,3-thiazole-5-carbaldehyde]	15	–
244 to 247	O=[N+]([O-])c1cccc(Nc2nc(-c3ccncc3)cs2)c1 [Compound 129, N-(3-Nitrophenyl)-4-(4-pyridinyl)-1,3-thiazol-2-amine]	> 40	–
239 to 241	FC(F)(F)c1cccc(Nc2nc(-c3ccncc3)cs2)c1 [Compound 19, 4-(4-Pyridinyl)-N-[3-(trifluoromethyl)phenyl]-1,3-thiazol-2-amine]	> 40	–
158 to 160	Cc1ccccc1Nc1nc(-c2ccncc2)cs1 [Compound 111, N-(2-Methylphenyl)-4-(4-pyridinyl)-1,3-thiazol-2-amine]	> 40	–
201 to 202	Cc1cccc(C(=O)Nc2nc(-c3ccncc3)cs2)c1 [Compound 100, 3-Methyl-N-[4-(4-pyridinyl)-1,3-thiazol-2-yl]benzamide]	> 40	–
170 to 172	FC(F)(F)c1ccccc1Nc1nc(-c2ccncc2)cs1 [Compound 117, 4-(4-Pyridinyl)-N-[2-(trifluoromethyl)phenyl]-1,3-thiazol-2-amine]	> 40	–
233 to 235	CCOC(=O)c1sc(Nc2cccc(C)c2)nc1-c1ccncc1 [Compound 88, Ethyl 2-[(3-Methylphenyl)amino]-4-(4-pyridinyl)-1,3-thiazole-5-carboxylate]	> 40	–

melting point [°C]	SMILES	IC50 (RCC4 cells; Table 1) [µM]	IC50 (RCC4 cells; Table 2) [µM]
189 to 191	Cc1cccc(Nc2nc(-c3ccncc3)c(C(=O)NCCN(C)C)s2)c1 [Compound 93, N-[2-(Dimethylamino)ethyl]-2-[(3-methylphenyl)amino]-4-(4-pyridinyl)-1,3-thiazole-5-carboxamide]	> 40	–
159 to 161	Cc1cccc(Nc2nc(-c3ccncc3N)cs2)c1 [Compound 182]	–	> 40
201 to 204	Cc1cccc(Nc2nc(-c3ccncc3)co2)c1 [Compound 105, N-(3-Methylphenyl)-4-(4-pyridinyl)-1,3-oxazol-2-amine]	> 40	–
127 to 130	O=[N+]([O-])c1ccccc1Nc1nc(-c2ccncc2)cs1 [Compound 119, N-[2-Nitrophenyl]-4-(4-pyridinyl)-1,3-thiazol-2-amine]	> 40	–
209 to 211	Fc1cccc(F)c1Nc1nc(-c2ccncc2)cs1 [Compound 139, N-(2,6-Difluorophenyl)-4-(4-pyridinyl)-1,3-thiazol-2-amine]	> 40	–
208 to 210	Cc1cccc(C)c1Nc1nc(-c2ccncc2)cs1 [Compound 137, N-(2,6-Dimethylphenyl)-4-(4-pyridinyl)-1,3-thiazol-2-amine]	> 40	–
192 to 194	Cc1cccc(CNc2nc(-c3ccncc3)cs2)c1 [Compound 103, N-(3-Methylbenzyl)-4-(4-pyridinyl)-1,3-thiazol-2-amine]	> 40	–
208 to 210	CC(C)(C)c1cccc(Nc2nc(-c3ccncc3)cs2)c1 [Compound 11, N-(3-tert-Butylphenyl)-4-(4-pyridinyl)-1,3-thiazol-2-amine]	> 40	–
149 to 151	Cc1cccc(N(CCO)c2nc(-c3ccncc3)cs2)c1 [Compound 97, 2-{3-Methyl[4-(4-pyridinyl)-1,3-thiazol-2-yl]anilino}ethanol]	> 40	–
207 to 209	COc1cc(Nc2nc(-c3ccncc3)cs2)cc(OC)c1OC [Compound 63, 4-(4-Pyridinyl)-N-(3,4,5-trimethoxyphenyl)-1,3-thiazol-2-amine]	> 40	–
229 to 230	Fc1cccc(Nc2nc(-c3ccncc3)cs2)c1 [Compound 121, N-(3-Fluorophenyl)-4-(4-pyridinyl)-1,3-thiazol-2-amine]	> 40	–
271 to 274	COc1ccc(C(=O)Nc2nc(-c3ccncc3)cs2)cc1 [Compound 102, 4-Methoxy-N-[4-(4-pyridinyl)-1,3-thiazol-2-yl]benzamide]	> 40	–
238 to 241	Cc1ccc(C(=O)Nc2nc(-c3ccncc3)cs2)cc1 [Compound 101, 4-Methyl-N-[4-(4-pyridinyl)-1,3-thiazol-2-yl]benzamide]	> 40	–
201 to 203	c1cc(-c2csc(Nc3ccc4c(c3)OCO4)n2)ccn1 [Compound 59, N-(1,3-Benzodioxol-5-yl)-4-(4-pyridinyl)-1,3-thiazol-2-amine]	> 40	–
203 to 205	CCOC(=O)c1sc(Nc2ccc3c(c2)CCC3)nc1-c1ccncc1 [Compound 89, Ethyl 2-(2,3-Dihydro-1H-inden-5-ylamino)-4-(4-pyridinyl)-1,3-thiazole-5-carboxylate]	> 40	–
